Earlier results in patent US20070135435A1, “Certain chemical entities, compositions, and methods” (priority 2005, published 2007).

Test system: A549 cells

| GI50 [µM] | SMILES |
| --- | --- |
| 1 | O=c1[nH]cc(F)c(=O)[nH]1 [5-fluorouracil] |
| 0.063 | COc1cccc2c1C(=O)c1c(O)c3c(c(O)c1C2=O)C[C@@](O)(C(=O)CO)C[C@@H]3O[C@H]1C[C@H](N)[C@H](O)[C@H](C)O1 [doxorubicin] |
| 500 | NC(=O)NO [hydroxyurea] |
| 0.004 | CC(=O)O[C@H]1C(=O)[C@@]2(C)[C@H]([C@H](OC(=O)c3ccccc3)[C@]3(O)C[C@H](OC(=O)[C@H](O)[C@@H](NC(=O)c4ccccc4)c4ccccc4)C(C)=C1C3(C)C)[C@]1(OC(C)=O)CO[C@@H]1C[C@@H]2O [paclitaxel] |
